{
  "source": "paper PMC6325233",
  "about": "“A Novel Actin Binding Drug with In Vivo Efficacy” (Antimicrobial Agents and Chemotherapy, 2018)",
  "key": {"C. albicans": {"tested_on": "C. albicans", "experiment": "Murine model of vulvovaginal candidiasis, efficacy", "type": "in vivo, BALB/c mice infected with C. albicans", "description": "(§1) The murine model of vulvovaginal candidiasis has been reported ([59]). A variation of this method was used. Three groups of six mice were used to evaluate two concentrations of occidiofungin (100 μg and 50 μg) and vehicle control (0.3% Noble agar). Briefly, 6- to 8-week-old BALB/c mice were treated subcutaneously with 200 ng per mouse of β-estradiol 17-valerate 3 days prior to inoculation with C. albicans (day −3). A subcutaneous dose of estradiol was administered every 3 days (day 0 [D0] and D3) until the end of the experiment to induce pseudoestrus. Intravaginal inoculations of approximately 20 μl of 2.5 × 10^6 CFU/ml of C. albicans were performed on D0 of the VVC study. On the same day of inoculation (D0), another subcutaneous injection of estradiol was made. A lyophilized powder of occidiofungin containing either 100 μg or 50 μg of occidiofungin was suspended in 20 μl of warm 0.3% Noble agar before the intravaginal inoculations. Drug treatments were performed on D2, D3, and D4 of the study. On day 5 (D5), the vaginal lumen was lavaged with 100 μl of sterile PBS with a 200-µl pipette tip. Serial dilutions and total CFU per vaginal lavage were determined by plating on YPD plates containing 50 μg/ml of chloramphenicol. Body weights, signs of vaginal irritation such as swelling or bleeding, and clinical signs of discomfort (stereotypical stretching behavior) were monitored. Statistical analyses (t tests) were performed to compare the control group to the treated groups and to compare differences between treated groups. All the analyses were 2 sided, with a P value of <0.05 considered statistically significant."}, "[1]": {"experiment": "Murine model of vulvovaginal candidiasis, tolerability", "type": "in vivo, BALB/c mice", "description": "as §1"}, "S. cerevisiae Δsac6": {"tested_on": "S. cerevisiae Δsac6", "experiment": "MIC against deletion mutant", "type": "cell-based", "conditions": "Actin bundling, Fimbrin", "description": "(§2) Occidiofungin was purified from a liquid culture of Burkholderia contaminans MS14 as previously described ([21]). MIC susceptibility testing was performed according to the CLSI M27-A3 and M38-A2 standards for the susceptibility testing of yeasts and filamentous fungi, respectively. S. cerevisiae deletion mutants were obtained from the commercially available BY4741 deletion library (Thermo Scientific)."}, "S. cerevisiae Δrom2": {"tested_on": "S. cerevisiae Δrom2", "experiment": "MIC against deletion mutant", "type": "cell-based", "conditions": "Rho1/2-GEF", "description": "as §2"}, "[2]": {"tested_on": "S. cerevisiae (diploid, BY4743) actin cables", "experiment": "Actin cable visualization, TRITC-labeled phalloidin", "type": "cell-based", "conditions": "for Cells without actin cables, Avg / Cells with actin cables, Avg: average of two replicates; for Cells without actin cables, Avg: untreated 25.87; for Cells with actin cables, Avg: untreated 74.13", "description": "S. pombe and S. cerevisiae cells (OD600 of 0.6 to 0.8) were incubated with 1× MIC of alkyne-OF at 30°C, with samples removed at 10, 30, and 60 min postincubation. The cells were washed in PBS and fixed with 3.7% formaldehyde. The cells were permeabilized by adding 0.5% Triton X-100. The cells were washed with PBS before the Click reaction with azide-derivatized Alexa Fluor 488 (Click-iT EdU imaging kit; Thermo Fisher Scientific). The cells were visualized with an Olympus FV1000 confocal microscope. A competition assay was carried out by pretreating cells with 1× MIC of the native occidiofungin followed by treatment with alkyne-OF. […] A 6.6 µM concentration of tetramethyl rhodamine isothiocyanate (TRITC)-tagged phalloidin was added to formaldehyde-fixed cells (permeabilized with 0.2% Triton X-100) for 30 min at room temperature. The cells were washed in PBS, added to a concanavalin A-treated glass slides, and overlaid with Vectashield plus DAPI. Images were viewed using a Nikon 50i fluorescence microscope with a 100× oil immersion objective and Texas Red and DAPI filter sets. Random images were captured using a Retiga EXi black and white charge-coupled-device (CCD) camera and Image Q software. All images were captured using the same exposure settings, with the image contrast altered postcapture using CorelDraw."}, "Candida glabrata 27243": {"tested_on": "Candida glabrata 27243", "experiment": "MIC susceptibility testing (fluconazole-resistant strain)", "type": "cell-based", "parameters": "key to MIC, 50% inhibition: -: indicates absence of isolates with 50% inhibition endpoint", "conditions": "CLSI M27-A3", "description": "as §2"}, "Candida albicans 23512": {"tested_on": "Candida albicans 23512", "experiment": "MIC susceptibility testing (fluconazole-resistant strain)", "type": "cell-based", "parameters": "key to MIC, 50% inhibition: -: indicates absence of isolates with 50% inhibition endpoint", "conditions": "CLSI M27-A3", "description": "as §2"}, "[3]": {"biological_target": "T1, rabbit skeletal muscle F-actin (Oryctolagus cuniculus, UniProt P68135)", "T1 construct": "Purified rabbit skeletal muscle filamentous actin (catalog number AKF99); purchased Cytoskeleton, Inc. AKF99; host or cells: rabbit skeletal muscle (tissue-purified)", "experiment": "Affinity pulldown with biotinylated alkyne-OF and streptavidin beads", "type": "binding", "conditions": "24 μg F-actin, 8 μg alkyne-OF, azide-biotin, streptavidin beads, silver stain", "description": "Purified rabbit skeletal muscle filamentous actin (catalog number AKF99) and G-actin (catalog number AKL95) were purchased from Cytoskeleton, Inc. Actin was reconstituted in Milli-Q water to achieve a stock concentration of 0.4 mg/ml in a buffer that consisted of 5 mM Tris-HCl (pH 8.0), 0.2 mM CaCl2, 0.2 mM ATP, 2 mM MgCl2, and 5% (wt/vol) sucrose as directed by the supplier. This solution was stored at −80°C in 50-μl aliquots until use. Immediately before use, each aliquot was thawed by placing it in a 37°C water bath for 5 min and then at room temperature. For all studies, 24 μg of F- or G-actin was used with 8 μg alkyne-OF. F-actin filaments were reacted with native occidiofungin for 15 min at room temperature at molar ratios of 1:10 (24 μg actin to 8 μg native occidiofungin) and 1:5 (24 μg actin to 4 μg native occidiofungin). As per the manufacturer’s instructions, Acti-stain 670 phalloidin (Cytoskeleton, Inc.) was used as a control in an in vitro actin filament binding study. Actin filaments treated with DMSO (solvent blank negative control) were stained and observed for comparison. The actin filaments were visualized on an Olympus FV1000 confocal microscope. Pulldown assays were performed using alkyne-OF with azide-biotin (Click-iT protein reaction buffer kit; Thermo Fisher Scientific), according to the manufacturer’s instructions. The proteins captured by biotinylated alkyne-OF on streptavidin beads were eluted by boiling in 50 µl of SDS sample loading buffer. The sample was electrophoresed through a 12% SDS gel, and protein bands were visualized by silver staining (Pierce Silver stain kit; Thermo Fisher Scientific) according to the manufacturer’s protocol. F- and G-actin treated with DMSO and native occidiofungin were used as the controls."}, "[4]": {"conditions": "intravaginal 100 and 50 µg, once per day for 3 days"}},
  "note": "“Also recorded” adds a separate entry of the source. Like-named read-outs stand apart in the source and are kept apart here.",
  "data": [
    {"substance": "occidiofungin", "values": [
      {"measurement": "difference between the two treated groups", "setting": "C. albicans; 100 vs 50 µg, P = 0.33", "result": "no statistically significant difference between the two treated groups"},
      {"measurement": "reduction in fungal load", "setting": "C. albicans; intravaginal 100 and 50 µg in 0.3% Noble agar, once per day for 3 days, six mice per group, vs vehicle P < 0.001", "result": "2 -log"},
      {"measurement": "efficacious concentration lower than azole-based treatment", "setting": "C. albicans; vs azole-based treatment methods", "result": "10 -fold"},
      {"measurement": "behavioral changes (sluggishness, stretching, reluctance to consume food)", "setting": "[1]; [4]", "result": "No behavioral changes"},
      {"measurement": "vaginal bleeding or swelling", "setting": "[1]; [4]", "result": "no vaginal bleeding or swelling was observed"},
      {"measurement": "signs of toxicity", "setting": "[1]; treatment of murine vulvovaginal candidiasis", "result": "without any signs of toxicity"},
      {"measurement": "MIC", "setting": "S. cerevisiae Δsac6", "result": 0.25, "unit": "µg/mL"},
      {"measurement": "MIC", "setting": "S. cerevisiae Δrom2", "result": 0.25, "unit": "µg/mL"},
      {"measurement": "Cells with actin cables, %", "setting": "[2]", "result": 1.32, "unit": "%"},
      {"measurement": "Cells without actin cables, Avg", "setting": "[2]; 0.5X MIC, 30 min, SD 1.45", "result": 97.66, "unit": "%"},
      {"measurement": "Cells with actin cables, Avg", "setting": "[2]; 0.5X MIC, 30 min, SD 1.45", "result": 2.34, "unit": "%"},
      {"measurement": "Cells without actin cables, %", "setting": "[2]; 0.5X MIC, 30 min, replicate 1", "result": 98.68, "unit": "%"},
      {"measurement": "Cells with actin cables, %", "setting": "[2]; 0.5X MIC, 30 min, replicate 2", "result": 3.36, "unit": "%"},
      {"measurement": "Cells without actin cables, %", "setting": "[2]; 0.5X MIC, 30 min, replicate 2", "result": 96.64, "unit": "%"},
      {"measurement": "Cells without actin cables, Avg", "setting": "[2]; 0.5X MIC, 60 min, SD 0.25", "result": 99.82, "unit": "%"},
      {"measurement": "Cells with actin cables, Avg", "setting": "[2]; 0.5X MIC, 60 min, SD 0.25", "result": 0.18, "unit": "%"},
      {"measurement": "Cells with actin cables, %", "setting": "[2]; 0.5X MIC, 60 min, replicate 1", "result": 0, "unit": "%"},
      {"measurement": "Cells without actin cables, %", "setting": "[2]; 0.5X MIC, 60 min, replicate 1", "result": 100, "unit": "%"},
      {"measurement": "Cells with actin cables, %", "setting": "[2]; 0.5X MIC, 60 min, replicate 2", "result": 0.36, "unit": "%"},
      {"measurement": "Cells without actin cables, %", "setting": "[2]; 0.5X MIC, 60 min, replicate 2", "result": 99.64, "unit": "%"},
      {"measurement": "effect on actin organization", "setting": "[2]; 0.5× MIC, 30 min", "result": "an accumulation of actin patches and/or aggregates of F-actin were observed throughout the treated cells with a concomitant loss of actin cables; also recorded: a loss of actin cables and the accumulation of actin aggregates"},
      {"measurement": "MIC, 50% inhibition", "setting": "Candida glabrata 27243; 24 hours", "result": 2, "unit": "µg/mL"},
      {"measurement": "MIC, 100% inhibition", "setting": "Candida glabrata 27243; 24 hours", "result": 4, "unit": "µg/mL"},
      {"measurement": "MIC, 50% inhibition", "setting": "Candida glabrata 27243; 48 hours", "result": "-"},
      {"measurement": "MIC, 100% inhibition", "setting": "Candida glabrata 27243; 48 hours", "result": 4, "unit": "µg/mL"},
      {"measurement": "MIC, 50% inhibition", "setting": "Candida albicans 23512; 24 hours", "result": "-"},
      {"measurement": "MIC, 100% inhibition", "setting": "Candida albicans 23512; 24 hours", "result": 1, "unit": "µg/mL"},
      {"measurement": "MIC, 50% inhibition", "setting": "Candida albicans 23512; 48 hours", "result": "-"},
      {"measurement": "MIC, 100% inhibition", "setting": "Candida albicans 23512; 48 hours", "result": 2, "unit": "µg/mL"},
      {"measurement": "copurification/binding with F-actin", "setting": "[3]", "result": "directly bind to F- or G-actin"},
      {"measurement": "copurification/binding with F-actin", "setting": "[3]; listed as native OF", "result": "actin was not detected in the control lanes"}
    ]}
  ]
}
